# Laboratory results reported in patent publication US10584115B2, “Substituted pyridine and pyrazine BMI-1 inhibitors” (PTC Therapeutics, Inc., priority 2013, dated 2020).
# Test system: Bmi-1 protein
# Experiment: Sandwich ELISA Assay (Bmi-1 protein level in HT-1080 cells after compound treatment)
# Assay type: cell-based
# Details: Table 1, Bmi-1 sandwich ELISA, read-out: ELISA EC50 value for Bmi-1 protein
# Summary of the method: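 HT-1080 cells exposed to compounds for 40–48 h at 37 °C (0.5% DMSO final), then lysed. Bmi-1 in lysates measured by sandwich ELISA (mouse monoclonal capture, rabbit anti-Bmi-1 detection, HRP anti-rabbit, TMB), read at OD450 with OD570 reference against a recombinant Bmi-1 standard curve (0–8000 pg/mL).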
row,EC50 [µM],SMILES
1,0.1 to 3,"FC(F)(F)Sc1ccc(Nc2cncc(-c3c(C(F)(F)F)nc4ccccn34)n2)cc1 [compound 211, 6-[2-(trifluoromethyl)imidazo[1,2-a]pyridin-3-yl]-N-{4-[(trifluoromethyl)sulfanyl]phenyl}pyrazin-2-amine]"
2,0.1 to 3,"O=C(c1ccc(Nc2cncc(-c3c(C(F)(F)F)nc4ccccn34)n2)cc1)C(F)(F)F [compound 212, 2,2,2-trifluoro-1-[4-({6-[2-(trifluoromethyl)imidazo[1,2-a]pyridin-3-yl]pyrazin-2-yl}amino)phenyl]ethanone]"
3,0.1 to 3,"OCc1nc2ccccn2c1-c1cncc(Nc2ccc(OC(F)(F)F)cc2)n1 [compound 213, [3-(6-{[4-(trifluoromethoxy)phenyl]amino}pyrazin-2-yl)imidazo[1,2-a]pyridin-2-yl]methanol]"
4,0.001 to 0.01,"OCc1nc2ccccn2c1-c1cncc(Nc2ccc(OC(F)F)cc2)n1 [compound 215, [3-(6-{[4-(difluoromethoxy)phenyl]amino}pyrazin-2-yl)imidazo[1,2-a]pyridin-2-yl]methanol]"
5,0.01 to 0.1,"N#Cc1cc(Nc2ccc(OC(F)(F)F)cc2)nc(-c2c(C(F)(F)F)nc3ccccn23)c1 [compound 218, 2-{[4-(trifluoromethoxy)phenyl]amino}-6-[2-(trifluoromethyl)imidazo[1,2-a]pyridin-3-yl]pyridine-4-carbonitrile]"
6,0.01 to 0.1,"Cc1nc2ccc(Cl)cc2n1-c1cncc(Nc2ccc(OC(F)(F)F)cc2)n1 [compound 220, 6-(6-chloro-2-methyl-1H-benzimidazol-1-yl)-N-[4-(trifluoromethoxy)phenyl]pyrazin-2-amine]"
7,0.01 to 0.1,"N#Cc1cc(Nc2ccc(OC(F)(F)F)cc2)nc(-c2c(C(F)(F)F)nc3ccc(F)cn23)c1 [compound 222, 2-[6-fluoro-2-(trifluoromethyl)imidazo[1,2-a]pyridin-3-yl]-6-{[4-(trifluoromethoxy)phenyl]amino}pyridine-4-carbonitrile]"
8,0.1 to 3,"Cc1nc2cc(Cl)ccc2n1-c1cncc(Nc2ccc(OC(F)(F)F)cc2)n1 [compound 223, 6-(5-chloro-2-methyl-1H-benzimidazol-1-yl)-N-[4-(trifluoromethoxy)phenyl]pyrazin-2-amine]"
9,0.1 to 3,"Cc1nc2cc(F)c(F)cc2n1-c1cc(C#N)cc(Nc2ccc(OC(F)(F)F)cc2)n1 [compound 243, 2-(5,6-difluoro-2-methyl-1H-benzimidazol-1-yl)-6-{[4-(trifluoromethoxy)phenyl]amino}pyridine-4-carbonitrile]"

# Second part, the compound before the results:
row,SMILES,EC50 [µM]
1,"Cc1ccc(Nc2cncc(-c3c(CO)nc4ccccn34)n2)cc1 [compound 214, (3-{6-[(4-methylphenyl)amino]pyrazin-2-yl}imidazo[1,2-a]pyridin-2-yl)methanol]",< 0.001
2,"Cc1nc2ccc(Cl)cc2n1-c1cncc(Nc2ccc(OC(F)F)cc2)n1 [compound 221, 6-(6-chloro-2-methyl-1H-benzimidazol-1-yl)-N-[4-(difluoromethoxy)phenyl]pyrazin-2-amine]",0.001 to 0.01
3,"Cc1nc2cc(Cl)ccc2n1-c1cncc(Nc2ccc(OC(F)F)cc2)n1 [compound 224, 6-(5-chloro-2-methyl-1H-benzimidazol-1-yl)-N-[4-(difluoromethoxy)phenyl]pyrazin-2-amine]",0.01 to 0.1
4,"CNc1ccc2nc(C)n(-c3cncc(Nc4ccc(OC(F)(F)F)cc4)n3)c2c1 [compound 225, N,2-dimethyl-1-(6-{[4-(trifluoromethoxy)phenyl]amino}pyrazin-2-yl)-1H-benzimidazol-6-amine]",0.1 to 3
5,"Cc1n[nH]c(C)c1-c1cncc(Nc2ccc(C(F)(F)F)cc2)n1 [compound 226, 6-(3,5-dimethyl-1H-pyrazol-4-yl)-N-[4-(trifluoromethyl)phenyl]pyrazin-2-amine]",0.1 to 3
6,"Cc1nc2cc(F)c(F)cc2n1-c1cc(N)cc(Nc2ccc(C(F)(F)F)cc2)n1 [compound 231, 6-(5,6-difluoro-2-methyl-1H-benzimidazol-1-yl)-N^2-[4-(trifluoromethyl)phenyl]pyridine-2,4-diamine]",0.01 to 0.1
7,"Cc1nc2cc(Cl)ccc2n1-c1cncc(Nc2ccc(C(F)(F)F)cc2)n1 [compound 239, 6-(5-chloro-2-methyl-1H-benzimidazol-1-yl)-N-[4-(trifluoromethyl)phenyl]pyrazin-2-amine]",0.01 to 0.1
8,"Cc1nc2ccc(Cl)cc2n1-c1cncc(Nc2ccc(C(F)(F)F)cc2)n1 [compound 240, 6-(6-chloro-2-methyl-1H-benzimidazol-1-yl)-N-[4-(trifluoromethyl)phenyl]pyrazin-2-amine]",0.01 to 0.1
9,"Cc1nc2cc(F)c(F)cc2n1-c1cc(C#N)cc(Nc2ccc(C(F)(F)F)cc2)n1 [compound 241, 2-(5,6-difluoro-2-methyl-1H-benzimidazol-1-yl)-6-{[4-(trifluoromethyl)phenyl]amino}pyridine-4-carbonitrile]",0.01 to 0.1
10,"Cc1nc2cc(F)c(F)cc2n1-c1cc(C#N)cc(Nc2ccc(OC(F)F)cc2)n1 [compound 242, 2-{[4-(difluoromethoxy)phenyl]amino}-6-(5,6-difluoro-2-methyl-1H-benzimidazol-1-yl)pyridine-4-carbonitrile]",0.01 to 0.1
11,"FC(F)Oc1ccc(Nc2cncc(-c3c(C4CC4)nc4ccc(C(F)(F)F)cn34)n2)cc1 [compound 251, 6-[2-cyclopropyl-6-(trifluoromethyl)imidazo[1,2-a]pyridin-3-yl]-N-[4-(difluoromethoxy)phenyl]pyrazin-2-amine]",0.01 to 0.1
12,"Cc1nc2c(F)cc(F)cn2c1-c1cncc(Nc2ccc(OC(F)F)cc2)n1 [compound 255, N-[4-(difluoromethoxy)phenyl]-6-(6,8-difluoro-2-methylimidazo[1,2-a]pyridin-3-yl)pyrazin-2-amine]",0.001 to 0.01
13,"Cc1nc2ccccc2n1-c1cncc(Nc2ccc(C(C)N)cc2)n1 (stereo not drawn) [compound 256, N-[4-(1-aminoethyl)phenyl]-6-(2-methyl-1H-benzimidazol-1-yl)pyrazin-2-amine]",0.1 to 3
14,"Cc1nc2c(n1-c1cncc(Nc3ccc(OC(F)F)cc3)n1)CCCC2 [compound 258, N-[4-(difluoromethoxy)phenyl]-6-(2-methyl-4,5,6,7-tetrahydro-1H-benzimidazol-1-yl)pyrazin-2-amine]",0.001 to 0.01
15,"Cc1nc2cc(F)c(F)cc2n1-c1cncc(Nc2ccc(OC(F)(F)F)cc2)n1 [compound 266, 6-(5,6-difluoro-2-methyl-1H-benzimidazol-1-yl)-N-[4-(trifluoromethoxy)phenyl]pyrazin-2-amine]",0.01 to 0.1
16,"Cc1nc2c(n1-c1cncc(Nc3ccc(C(F)(F)F)cc3)n1)CCCC2 [compound 267, 6-(2-methyl-4,5,6,7-tetrahydro-1H-benzimidazol-1-yl)-N-[4-(trifluoromethyl)phenyl]pyrazin-2-amine]",0.001 to 0.01

# Same assay, conditions: read-out: ELISA EC50 value for Bmi-1 protein, Table 1, Bmi-1 sandwich ELISA
row,SMILES,EC50 [µM]
1,"FC(F)(F)c1ccc(Nc2cncc(-c3cnc4ccccn34)n2)cc1 [compound 235, 6-(imidazo[1,2-a]pyridin-3-yl)-N-[4-(trifluoromethyl)phenyl]pyrazin-2-amine]",0.1 to 3
2,"Cc1nc2c(F)cc(F)cn2c1-c1cncc(Nc2ccc(C(F)(F)F)cc2)n1 [compound 254, 6-(6,8-difluoro-2-methylimidazo[1,2-a]pyridin-3-yl)-N-[4-(trifluoromethyl)phenyl]pyrazin-2-amine]",0.001 to 0.01
